The values below are quoted from earlier work in patent publication US20020040051A1, “Solid dispersion of ipriflavone for oral administration and its manufacturing methods” (priority 2000, published 2002).

≈ marks a conversion by molar mass, not a printed value.

The conditions of series [1]: 200 mg 3-4 times daily (600-800 mg daily), healthy adult male (18-60 yr); cited from earlier work.
For series [2] the following is noted: cited from earlier work.

On to `CC(C)Oc1ccc2c(=O)c(-c3ccccc3)coc2c1` [compound 1, 3-phenyl-7-isopropoxy-4H-1-benzopyrane-4-one], for which the “day of administration on which blood concentration reaches an effective level” value in series [1] is 3rd or 4th day. For the same compound, the water solubility in series [2] was 1 µg/mL (≈ 3.57 µM).
